This note sets out measurements from ChEMBL document CHEMBL5727862, “Inhibitors of plasma kallikrein and uses thereof” (2020).

The nature of the test: Inhibitory Activity of Exemplary Compounds against Plasma Kallikrein: Example compounds were evaluated for inhibition of the human activated kallikrein enzyme in two formats of an assay employing a fluorogenic peptide substrate. In one assay format, the concentrations of reagents were as follows: 20 mM Tris pH 7.5, 1 mM EDTA, 150 mM sodium chloride, 0.1% PEG-400, 0.1% Triton X-100, 500 pM activated kallikrein enzyme, 300 uM Pro-Phe-Arg-7-amido-4-methylcoumarin substrate. Prior to reaction initiation with substrate, enzyme and inhibitors were preincubated for 30 min at RT. After initiation with substrate, reactions were incubated for 10 min at RT and fluorescence emission at 460 nm from 380 nm excitation measured with a microplate reader. In another assay format, the concentrations of reagents were as follows: 20 mM Tris pH 7.5, 1 mM EDTA, 150 mM sodium chloride, 0.1% PEG-400, 0.1% Triton X-100, 5 pM activated kallikrein enzyme, 300 uM Pro-Phe-Arg-7-amido-4-methylcoumarin substrate. Prior to reaction initiation with substrate, enzyme and inhibitors were preincubated for 30 min at RT. After initiation with substrate, reactions were incubated for 18 h at RT and fluorescence emission at 460 nm from 380 nm excitation measured with a microplate reader.

With `CC(C)(C)OC(=O)c1ncc(-c2cc(C3CC3)cn3cc(Cn4cc(C(=O)NCc5ncn6ccc(Cl)c(F)c56)nn4)nc23)s1`, the EC50 was < 1 nM.

As to `O=C(NCc1ncn2ccc(Cl)c(F)c12)c1cn(Cc2cn3cc(C4CC4)ccc3n2)c(C(=O)O)n1`, the concentration giving a half-maximal response (EC50) was < 1 nM. The result for `CCOC(=O)C1CN(c2cc(C3CC3)cn3cc(Cn4cc(C(=O)NCc5ncn6ccc(Cl)c(F)c56)nn4)nc23)CCO1` (configuration not stated) reads < 1 nM; that for `CCOC(=O)c1cc(C2CC2)cn2cc(Cn3cc(C(=O)NCc4ncn5ccc(Cl)cc45)cn3)nc12`, < 1 nM.

On to `O=C(NCc1cn2c(F)c(Cl)ccc2n1)c1cn(Cc2cn3cc(C4CC4)cc(Cc4nnc(C(=O)O)o4)c3n2)nn1`, for which the EC50 is < 1 nM.

Regarding `O=C(NCc1cn2c(F)c(Cl)ccc2n1)c1cn(Cc2cn3cc(C4CC4)cc(Cc4nnco4)c3n2)nn1`, the EC50 was < 1 nM.

On to `O=C(NCc1ncn2ccc(Cl)c(F)c12)c1cn(Cc2cn3cc(C4CC4)cc(CCl)c3n2)nn1`, for which the EC50 is < 1 nM. The result for `CCOC(=O)c1cc(C2CC2)cn2cc(Cn3cc(C(=O)NCc4ncn5ccc(Cl)c(F)c45)nn3)nc12` reads < 1 nM; that for `CCOC(=O)c1ccn(Cc2cc(C3CC3)cn3cc(Cn4cc(C(=O)NCc5ncn6ccc(Cl)c(F)c56)nn4)nc23)n1`, < 1 nM. As for `CC(c1cn2cc(C3CC3)cc(C3CCC(=O)O3)c2n1)n1cc(C(=O)NCc2ncn3ccc(Cl)c(F)c23)nn1` (configuration not stated), the EC50 was < 1 nM. As to `O=C(OCc1ccccc1)c1cnn(Cc2cn3cc(C4CC4)cc(CO)c3n2)c1`, the EC50 was < 1 nM. Under `O=C(NCc1ncn2ccc(Cl)c(F)c12)c1cn(Cc2cn3nc(C4CC4)cc(CN4CCCC4)c3n2)nn1` stands < 1 nM.

A word on the EC50: it is the concentration at which the effect is half-maximal. The low end stands for a more potent agent, the high end for a less potent agent.
